# Laboratory results reported in ChEMBL document CHEMBL4229469, “Small molecule scaffolds that disrupt the Rev1-CT/RIR protein-protein interaction” (Bioorg Med Chem, 2018).
# Active and inactive are the calls of the source. The calls are words filed in the database; no cut-off is given here.
# Key:
# [1] = biological target: T1, DNA repair protein REV1 (Homo sapiens) (UniProt Q9UBZ9); test: Displacement of FAM-labelled polkappa-RIR peptide from recombinant human C-terminal Rev1 (1158 to 1251 residues) expressed in Escherichia coli BL21(DE3) at 10 uM after 1 hr by fluorescence polarization assay relative to control
# T1 sequence (whole entry): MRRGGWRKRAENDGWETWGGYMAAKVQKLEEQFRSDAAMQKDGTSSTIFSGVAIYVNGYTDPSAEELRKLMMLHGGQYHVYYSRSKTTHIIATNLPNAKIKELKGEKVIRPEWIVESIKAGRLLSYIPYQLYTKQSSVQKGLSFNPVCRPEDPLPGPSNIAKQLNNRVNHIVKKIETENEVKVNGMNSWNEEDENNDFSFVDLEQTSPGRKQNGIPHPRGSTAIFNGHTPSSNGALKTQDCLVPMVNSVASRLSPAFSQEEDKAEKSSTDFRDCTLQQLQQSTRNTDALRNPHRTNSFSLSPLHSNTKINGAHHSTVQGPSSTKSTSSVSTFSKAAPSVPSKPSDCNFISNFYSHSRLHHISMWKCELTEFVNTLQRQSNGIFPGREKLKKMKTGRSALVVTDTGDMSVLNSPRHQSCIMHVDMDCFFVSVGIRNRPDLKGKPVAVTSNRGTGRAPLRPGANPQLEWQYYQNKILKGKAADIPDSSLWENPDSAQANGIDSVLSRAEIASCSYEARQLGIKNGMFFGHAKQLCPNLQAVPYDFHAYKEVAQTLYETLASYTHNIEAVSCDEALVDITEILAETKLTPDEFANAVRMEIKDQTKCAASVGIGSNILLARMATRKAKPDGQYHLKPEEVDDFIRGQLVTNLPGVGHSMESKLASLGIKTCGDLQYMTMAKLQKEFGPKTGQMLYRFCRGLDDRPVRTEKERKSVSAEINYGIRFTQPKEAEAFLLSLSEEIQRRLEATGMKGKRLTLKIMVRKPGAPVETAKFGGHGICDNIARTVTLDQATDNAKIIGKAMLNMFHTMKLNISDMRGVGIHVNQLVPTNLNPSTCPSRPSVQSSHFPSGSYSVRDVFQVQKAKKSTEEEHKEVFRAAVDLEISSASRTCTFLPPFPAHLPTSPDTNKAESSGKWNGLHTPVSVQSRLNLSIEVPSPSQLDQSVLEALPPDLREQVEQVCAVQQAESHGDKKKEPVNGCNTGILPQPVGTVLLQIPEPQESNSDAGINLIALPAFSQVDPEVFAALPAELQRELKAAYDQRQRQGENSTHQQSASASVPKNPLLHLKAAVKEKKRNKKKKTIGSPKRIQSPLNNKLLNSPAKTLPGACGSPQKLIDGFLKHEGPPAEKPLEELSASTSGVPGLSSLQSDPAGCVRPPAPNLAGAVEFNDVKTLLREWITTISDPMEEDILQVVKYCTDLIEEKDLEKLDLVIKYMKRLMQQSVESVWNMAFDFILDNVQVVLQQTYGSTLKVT
# DNA repair protein REV1 = biological target: T2, DNA repair protein REV1 (Homo sapiens, UniProt Q9UBZ9); test: Displacement of FAM-labelled polkappa-RIR peptide from recombinant human C-terminal Rev1 (1158 to 1251 residues) expressed in Escherichia coli BL21(DE3) after 1 hr by fluorescence polarization assay
# T2 sequence (Q9UBZ9 whole entry): T1 sequence (whole entry)
# U2OS [2] = test: Potentiation of cisplatin-induced cytotoxicity in cisplatin-resistant human U2OS cells assessed as cisplatin GI50 at 50 uM after 72 hrs by MTS assay (reference value: 23.9 +/- 1.9 uM); type: functional
# U2OS [3] = test: Potentiation of cisplatin-induced cytotoxicity in cisplatin-resistant human U2OS cells assessed as cisplatin GI50 at 25 uM after 72 hrs by MTS assay (reference value: 23.9 +/- 1.9 uM); type: functional
# [4] = Growth inhibition of cisplatin-resistant human U2OS cells after 72 hrs by MTS assay; type: cell-based
# U2OS [5] = test: Potentiation of cisplatin-induced cytotoxicity in cisplatin-resistant human U2OS cells assessed as cisplatin GI50 at 10 uM after 72 hrs by MTS assay (reference value: 23.9 +/- 1.9 uM); type: functional
# [6] = Drug metabolism in human liver microsomes assessed as oxidation and dehydrogenation at 10 uM after 30 to 60 mins by LC-MS/MS analysis; type: ADME, microsome
# [7] = Permeability of the compound by PAMPA; type: ADME
# [8] = Drug metabolism in human liver microsomes assessed as hydrolysis by measuring methyl 2-(piperidine-4-carboxamido)-5-propylthiophene-3-carboxylate formation at 10 uM after 30 to 60 mins by LC-MS/MS analysis; type: ADME, microsome
# [9] = Drug metabolism in human liver microsomes assessed as dehydrogenation at 10 uM after 30 to 60 mins by LC-MS/MS analysis; type: ADME, microsome
# [10] = Solubility of the compound in pH 4 phosphate buffered saline
# [11] = Stability of the compound in pH 7.4 phosphate buffered saline assessed as parent compound remaining at 5 uM; type: physicochemical; conditions: read-out: Stability
# [12] = Ratio of solubility in pH 7.4 phosphate buffered saline to pH 4 phosphate buffered saline; type: physicochemical; conditions: buffer
# [13] = Drug metabolism in human liver microsomes assessed as oxidation at 10 uM after 30 to 60 mins by LC-MS/MS analysis; type: ADME, microsome
# [14] = Intrinsic clearance in human liver microsomes at 1 uM; type: ADME, microsome
# [15] = Solubility of the compound in pH 7.4 phosphate buffered saline
# [16] = Drug metabolism in human liver microsomes assessed as demethylation by measuring 2-(1-acetylpiperidine-4-carboxamido)-5-propylthiophene-3-carboxylic acid formation at 10 uM after 30 to 60 mins by LC-MS/MS analysis; type: ADME, microsome
# U2OS [17] = test: Potentiation of cisplatin-induced cytotoxicity in cisplatin-resistant human U2OS cells assessed as increase in cisplatin-induced reduction in colony survival at 20 uM treated for 24 hrs measured after 7 days by Coomassie Brilliant Blue R-250 staining based assay; type: functional, cell-based
# [18] = Retention time of the compound in human liver microsomes at 10 uM by LC-MS/MS analysis; type: ADME, microsome
Compound,inhibition [1] [%],IC50 (DNA repair protein REV1) [µM],Kd (DNA repair protein REV1) [µM],Ki (DNA repair protein REV1) [µM],GI50 (U2OS [2]) [µM],GI50 at 72 h [4] [µM],also measured
CCc1ccc(NC(=O)CN2CCN(c3ccc(F)cc3)CC2)cc1,> 85,2.5,6.5,6.9,–,–,–
CC(=O)N1CCC(C(=O)Nc2sc3c(c2C(N)=O)CCC(C)C3)CC1 (stereo not drawn),> 85,13.2,12.6,15.7,–,–,–
CC(=O)C(C)n1c(CN2CCN(c3cccc(Cl)c3)CC2)nc2c1c(=O)n(C)c(=O)n2C (stereo not drawn),> 85,2.5,2.1,2,7.8,> 100,GI50 (U2OS [3]): 12.3 µM; GI50 (U2OS [5]): 19.3 µM
CCc1ccc(NC(=O)CN2CCN(c3ccccc3)CC2)cc1,> 85,> 50,49.5,–,–,–,–
CCc1cc(C(=O)OC)c(NC(=O)C2CCN(C(C)=O)CC2)s1,> 85,12.4,23.7,28.8,–,–,–
CC(=O)N1CCC(C(=O)Nc2sc3c(c2C(=O)NC2CC2)CCCC3)CC1,> 85,21.5,26.6,31.5,–,–,–
CCc1ccc(NC(=O)CN2CCN(c3ccc(OC)cc3)CC2)cc1,> 85,5.5,3.6,3.6,–,–,–
N#Cc1ccc(NC(=O)CN2CCN(c3ccc(F)cc3)CC2)cc1,> 85,> 50,109,–,–,–,–
Cc1cccc(N2CCN(CC(=O)Nc3ccc(F)cc3)CC2)c1C,> 85,21.1,12.4,14.8,–,–,–
CCCc1cc(C(=O)OC)c(NC(=O)C2CCN(C(C)=O)CC2)s1,> 85,4.1,3.5,3.6,19.6,> 100,Drug metabolism [6]: Metabolite_Detected; log(permeability) [7]: -4.5; Drug metabolism [8]: Metabolite_Detected; Drug metabolism [9]: Metabolite_Detected; solubility [10]: 21.1 µM; GI50 (U2OS [3]): 12.6 µM; remaining at 5 µM [11]: 95%; Ratio [12]: 3; Drug metabolism [13]: Metabolite_Detected; CLH [14]: 18.8 µL/min/mg; solubility [15]: 63.3 µM; Drug metabolism [16]: Metabolite_Detected
CCCc1cc(C(=O)OCC)c(NC(=O)C2CCN(C(C)=O)CC2)s1,> 85,5.9,7.8,11.6,–,–,–
O=C(CN1CCN(c2ccc(F)cc2)CC1)Nc1ccccc1,> 85,28,42.2,46.6,–,–,–
CCS(=O)(=O)N(C)c1ccc(C(=O)N2CCN(c3ccccc3OC)CC2)cc1,> 85,4.6,4.3,4.7,11.9,> 100,GI50 (U2OS [3]): 13.3 µM
COc1ccc(OC)c(-c2csc(N3CCN(C(=O)c4ccco4)CC3)n2)c1,> 85,6.2,3.7,4.8,11.8,> 100,GI50 (U2OS [3]): 11.9 µM
CCn1c2ccccc2c2cc(NC(=O)N3CCC(C(C)=O)CC3)ccc21,> 85,4.6,6.9,8.9,–,–,–
COc1cc2c(cc1OC)CN(Cc1ccc(OCc3ccccc3)cc1)CC2,> 85,11.9,12.6,14.5,10.1,> 100,GI50 (U2OS [3]): 13.4 µM; Activity (U2OS [17]): Active; GI50 (U2OS [5]): 16.5 µM
CCCCc1ccc(-n2nnc(C(=O)N(C)C3CCS(=O)(=O)C3)c2C)cc1 (stereo not drawn),> 85,5.9,3.6,4.9,20.1,> 100,GI50 (U2OS [3]): 25.7 µM
COC(=O)c1cc(C)sc1NC(=O)C1CCN(C(C)=O)CC1,> 85,9.4,8.2,7.4,–,–,–
CCCc1cc(C(=O)OC)c(NC(=O)C2CCNCC2)s1,–,–,–,–,–,–,Retention_time [18]: 10.58 min
CC(C)(C)C(=O)N1CCN(c2ccc(NC(=O)c3cccnc3)cc2Cl)CC1,> 85,12.3,18.2,19,25.9,> 100,–
Cc1ccc(C(=O)N2CCN(c3ccccc3)CC2)cc1S(=O)(=O)N1CCOCC1,> 85,3.5,2.9,3,28.2,> 100,–
CC(=O)N1CCC(C(=O)Nc2sc3c(c2C(=O)NC2CC2)CCC(C)C3)CC1 (stereo not drawn),> 85,2.5,4.4,4.6,15.3,> 100,GI50 (U2OS [3]): 24.4 µM; Activity (U2OS [17]): inactive
CCCC1CCc2c(sc(NC(=O)C3CCN(C(C)=O)CC3)c2C(N)=O)C1 (stereo not drawn),> 85,4.9,9.5,11.9,–,–,–
CCCc1cc(C(=O)O)c(NC(=O)C2CCN(C(C)=O)CC2)s1,–,–,–,–,–,–,Retention_time [18]: 3.8 min
